{"source": "paper PMC4476799", "about": "“Englerin A Agonizes the TRPC4/C5 Cation Channels to Inhibit Tumor Cell Line Proliferation” (PLoS ONE, 2015)", "key": {"TRPC4": {"biological_target": "T1, TRPC4 (Homo sapiens, UniProt Q9UBN4)", "T1 construct": "host or cells: Flp-In T-REx-293 (called HEK293T with Dox-inducible TRPC4)", "T1 sequence (Q9UBN4 1-977)": "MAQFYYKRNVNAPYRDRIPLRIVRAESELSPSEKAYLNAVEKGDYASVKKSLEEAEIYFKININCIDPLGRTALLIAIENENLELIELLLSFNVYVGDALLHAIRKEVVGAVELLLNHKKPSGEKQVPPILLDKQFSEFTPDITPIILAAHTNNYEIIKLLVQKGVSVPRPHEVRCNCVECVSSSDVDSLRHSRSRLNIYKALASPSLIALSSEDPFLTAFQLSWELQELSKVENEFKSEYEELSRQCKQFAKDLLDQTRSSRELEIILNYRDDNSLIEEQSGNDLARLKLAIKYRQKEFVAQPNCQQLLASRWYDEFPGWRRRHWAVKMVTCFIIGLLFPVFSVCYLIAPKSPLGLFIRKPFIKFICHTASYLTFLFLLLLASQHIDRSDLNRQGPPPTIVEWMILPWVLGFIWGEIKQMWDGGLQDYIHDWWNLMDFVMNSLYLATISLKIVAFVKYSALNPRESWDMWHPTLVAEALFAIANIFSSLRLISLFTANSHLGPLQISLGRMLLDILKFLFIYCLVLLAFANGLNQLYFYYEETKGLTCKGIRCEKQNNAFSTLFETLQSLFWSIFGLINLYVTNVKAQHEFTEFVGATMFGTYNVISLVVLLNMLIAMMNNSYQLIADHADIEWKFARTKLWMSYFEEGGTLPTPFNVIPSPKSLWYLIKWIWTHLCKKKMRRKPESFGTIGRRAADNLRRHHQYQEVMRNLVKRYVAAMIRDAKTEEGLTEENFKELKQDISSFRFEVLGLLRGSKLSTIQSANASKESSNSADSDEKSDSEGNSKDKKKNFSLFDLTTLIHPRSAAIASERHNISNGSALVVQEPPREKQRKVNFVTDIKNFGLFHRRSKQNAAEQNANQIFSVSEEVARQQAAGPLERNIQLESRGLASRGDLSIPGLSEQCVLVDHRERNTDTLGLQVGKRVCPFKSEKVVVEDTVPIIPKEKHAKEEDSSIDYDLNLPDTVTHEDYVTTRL", "test": "Electrophysiology (QPatch-HT automated patch clamp, voltage ramp)", "format": "cell-based", "conditions": "TRPC4 expressing HEK293T cells", "method": "TRPC4 currents were recorded from HEK293T cells with Dox-inducible TRPC4 on the QPatch-HT automated patch clamp system at room temperature (21–24°C) (Biolin Scientific, Stockholm, Sweden). The internal solution contained (in mM): 150 Cs-aspartate, 2 MgCl2, 0.36 CaCl2, 1 EGTA, 4 MgATP, 0.3 NaGTP and 10 HEPES, pH = 7.20 with CsOH (calculated free [Ca^2+] = 100 nM using WebMaxChelator http://www.stanford.edu/~cpatton/maxc.html, assuming an ionic strength of 0.16). The standard external solution contained (in mM): 150 NaCl, 4 KCl, 2 CaCl2, 1 MgCl2, 10 HEPES and 10 D-glucose (pH = 7.40) with NaOH. Currents were elicited by a voltage ramp protocol consisting of a 50 ms step to −100 mV, followed by a 200 ms ramp to +100 mV and 10 ms at +100 mV. Voltage ramps were applied every 10 s from a holding potential of 0 mV. Results were expressed as means ± S.E.M."}, "[1]": {"conditions": "male, Sprague Dawley, rat, in vivo, po, 5 mg/kg", "protocol": "A 25 μl aliquot of sample was subjected to protein precipitation using 150 μl of acetonitrile containing 100 ng/ml of internal standard (glyburide). After vortex and centrifugation for 5 minutes at 4000 revolutions per minute, 125 μl of supernatant was transferred to a 1 ml 96-well plate, followed by the addition of 50 μl of water. The analysis was conducted by using HPLC separation coupled with mass spectrometric detection.\nAgilent 1100 (Santa Clara, CA) was used for LC separations coupled with CTC PAL (Zwingen, Switzerland). […] A Sciex API 4000 Q Trap mass spectrometer equipped with a Turbo Ionspray interface from Applied Biosystems (Framingham, MA) was used for detection. The instrument was operated in the positive ion MRM mode employing nitrogen as a collision gas. […] Data were acquired and processed by Sciex Analyst 1.5.2 software.\nStandard regression and back-calculation of unknown concentrations were performed by Thermo Watson 7.4 software purchased from Thermo Fisher Scientific, Inc. (Philadelphia, PA). Quantification of the parent compound in rat blood was based on at least 5-point calibration curve. […] The bias of all calibration standards and quality control samples was within the acceptance criteria of ± 30%."}, "[2]": {"test": "Anesthetized rat experiments (hemodynamics, blood levels)", "format": "in vivo", "conditions": "individual animals; for Outcome: IV infusion 0.3 mg/kg englerin B (doses up to 0.3 mg/kg); for Compound concentration in blood: IV infusion 0.3 mg/kg englerin B", "method": "Rats were anesthetized via an intra-peritoneal (ip) injection of ketamine/xylazine (80/10 mg/kg). A half dose (40 mg/kg ketamine) was given as supplemental anesthesia as needed. Animals were placed on a heating pad set to maintain body temperature at approximately 37°C. Body temperature was monitored throughout the experiment via a rectal temperature probe.\nOnce consciousness had been lost, the trachea was isolated and an endotracheal tube was inserted for mechanical ventilation. The endotracheal tube was connected to a mechanical ventilator that provided positive-pressure ventilation with room air, set to maintain 60 breaths/min with a tidal volume of 15 ml/kg. An incision was made on both sides of the neck. Both carotid arteries and a jugular vein were isolated and ligated anteriorly. A Millar pressure catheter was introduced into the left carotid artery to measure systolic arterial pressure (SAP), diastolic pressure (DAP), mean arterial pressure (MAP) and heart rate (HR). Another Millar pressure catheter was introduced into the left ventricular chamber through the right carotid artery to measure left ventricular systolic pressure (LVSP) and left ventricular end diastolic pressure (LVEDP).\nA cannula for test compound administration was placed into a jugular vein. A lead II electrocardiogram was recorded via needle electrodes placed in the right arm, left leg and chest and PR and QRS intervals were reported.\nAfter rats were surgically instrumented, hemodynamic and electrocardiographic monitoring was initiated. […] The duration of the experimental testing was approximately 60 minutes.\nAt the end of each infusion period, approximately 0.5 ml of blood was withdrawn from the vena cava into a pre-chilled collection tube containing 2.5 ml of 90% ACN (acetonitrile):10% water."}}, "note": "Values joined by “and” are separate entries in the source; they are usually repeats but may differ in a detail not shown here. Equal entries are not always repeated."}
{"smiles": "CC(C)[C@@]12C[C@@H](O)[C@@](C)(O1)[C@@H]1CC[C@@H](C)[C@H]1[C@@H]2OC(=O)/C=C/c1ccccc1", "note": "[Englerin B]", "values": [{"measurement": "induced current", "setting": "TRPC4", "result": "did not induce current"}, {"measurement": "blood levels of englerin B after dosing englerin A", "setting": "[1]", "result": "> 50", "unit": "nM"}, {"measurement": "Outcome", "setting": "[2]", "result": "No effect"}, {"measurement": "Outcome", "setting": "[2]; listed as englerin B", "result": "no effect on mean arterial pressure or animal viability"}, {"measurement": "Compound concentration in blood", "setting": "[2]", "result": "539 nM and 362 nM and 462 nM and 442 nM"}, {"measurement": "Compound concentration in blood", "setting": "[2]; listed as englerin B", "result": "362 to 539", "unit": "nM"}]}
